Results as given in ChEMBL document CHEMBL5046315, “CRCM5484: A BET-BDII Selective Compound with Differential Anti-leukemic Drug Modulation” (J Med Chem, 2022).
The source made the active and inactive calls.

Tests used:
Type in all cases: functional, cell-based
MOLM-14 [1] = test: Potentiation of gileritinib-induced antileukemic activity against human MOLM-14 cells at 4.3 uM in presence of bone-marrow derived stromal cell-conditioned medium
MOLM-14 [2] = test: Potentiation of midostaurin-induced antileukemic activity against human MOLM-14 cells at 4.3 uM in presence of bone-marrow derived stromal cell-conditioned medium
U-937 [3] = test: Potentiation of afatinib-induced antileukemic activity against human U-937 cells at 4.3 uM in presence of bone-marrow derived stromal cell-conditioned medium
CCRF-CEM [4] = test: Potentiation of imatinib-induced antileukemic activity against human CCRF-CEM cells at 4.3 uM in presence of bone-marrow derived stromal cell-conditioned medium
CCRF-CEM [5] = test: Potentiation of rigosertib-induced antileukemic activity against human CCRF-CEM cells at 4.3 uM in presence of bone-marrow derived stromal cell-conditioned medium
CCRF-CEM [6] = test: Potentiation of tipifarnib-induced antileukemic activity against human CCRF-CEM cells at 4.3 uM in presence of bone-marrow derived stromal cell-conditioned medium
MOLM-14 [7] = test: Potentiation of nelarabine-induced antileukemic activity against human MOLM-14 cells at 4.3 uM in presence of bone-marrow derived stromal cell-conditioned medium
CCRF-CEM [8] = test: Potentiation of metformin -induced antileukemic activity against human CCRF-CEM cells at 4.3 uM in presence of bone-marrow derived stromal cell-conditioned medium
MOLM-14 [9] = test: Potentiation of dexamethasone-induced antileukemic activity against human MOLM-14 cells at 4.3 uM in presence of bone-marrow derived stromal cell-conditioned medium
MOLM-14 [10] = test: Potentiation of vermurafenib-induced antileukemic activity against human MOLM-14 cells at 4.3 uM in presence of bone-marrow derived stromal cell-conditioned medium
CCRF-CEM [11] = test: Potentiation of SGI-1776-induced antileukemic activity against human CCRF-CEM cells at 4.3 uM in presence of bone-marrow derived stromal cell-conditioned medium
U-937 [12] = test: Potentiation of erlotinib-induced antileukemic activity against human U-937 cells at 4.3 uM in presence of bone-marrow derived stromal cell-conditioned medium
U-937 [13] = test: Potentiation of JQ1-induced antileukemic activity against human U-937 cells at 4.3 uM in presence of bone-marrow derived stromal cell-conditioned medium
CCRF-CEM [14] = test: Potentiation of arsenic-induced antileukemic activity against human CCRF-CEM cells at 4.3 uM in presence of bone-marrow derived stromal cell-conditioned medium
CCRF-CEM [15] = test: Potentiation of AraC-induced antileukemic activity against human CCRF-CEM cells at 4.3 uM in presence of bone-marrow derived stromal cell-conditioned medium
MOLM-14 [16] = test: Potentiation of lapatinib-induced antileukemic activity against human MOLM-14 cells at 4.3 uM in presence of bone-marrow derived stromal cell-conditioned medium
MOLM-14 [17] = test: Potentiation of carfilzomib-induced antileukemic activity against human MOLM-14 cells at 4.3 uM in presence of bone-marrow derived stromal cell-conditioned medium
MOLM-14 [18] = test: Potentiation of olaparid-induced antileukemic activity against human MOLM-14 cells at 4.3 uM in presence of bone-marrow derived stromal cell-conditioned medium
MOLM-14 [19] = test: Potentiation of idarubicin-induced antileukemic activity against human MOLM-14 cells at 4.3 uM in presence of bone-marrow derived stromal cell-conditioned medium
U-937 [20] = test: Potentiation of AC-4-130-induced antileukemic activity against human U-937 cells at 4.3 uM in presence of bone-marrow derived stromal cell-conditioned medium
U-937 [21] = test: Potentiation of idelalisib-induced antileukemic activity against human U-937 cells at 4.3 uM in presence of bone-marrow derived stromal cell-conditioned medium
U-937 [22] = test: Potentiation of decitabine-induced antileukemic activity against human U-937 cells at 4.3 uM in presence of bone-marrow derived stromal cell-conditioned medium
U-937 [23] = test: Potentiation of vincristine-induced antileukemic activity against human U-937 cells at 4.3 uM in presence of bone-marrow derived stromal cell-conditioned medium
MOLM-14 [24] = test: Potentiation of MK2206-induced antileukemic activity against human MOLM-14 cells at 4.3 uM in presence of bone-marrow derived stromal cell-conditioned medium
CCRF-CEM [25] = test: Potentiation of everolimus-induced antileukemic activity against human CCRF-CEM cells at 4.3 uM in presence of bone-marrow derived stromal cell-conditioned medium
MOLM-14 [26] = test: Potentiation of prima1-induced antileukemic activity against human MOLM-14 cells at 4.3 uM in presence of bone-marrow derived stromal cell-conditioned medium
MOLM-14 [27] = test: Potentiation of bleomycine-induced antileukemic activity against human MOLM-14 cells at 4.3 uM in presence of bone-marrow derived stromal cell-conditioned medium
CCRF-CEM [28] = test: Potentiation of birinapant-induced antileukemic activity against human CCRF-CEM cells at 4.3 uM in presence of bone-marrow derived stromal cell-conditioned medium
MOLM-14 [29] = test: Potentiation of alisertib-induced antileukemic activity against human MOLM-14 cells at 4.3 uM in presence of bone-marrow derived stromal cell-conditioned medium
U-937 [30] = test: Potentiation of metformin -induced antileukemic activity against human U-937 cells at 4.3 uM in presence of bone-marrow derived stromal cell-conditioned medium
MOLM-14 [31] = test: Potentiation of cladribine-induced antileukemic activity against human MOLM-14 cells at 4.3 uM in presence of bone-marrow derived stromal cell-conditioned medium
CCRF-CEM [32] = test: Potentiation of clofarabine-induced antileukemic activity against human CCRF-CEM cells at 4.3 uM in presence of bone-marrow derived stromal cell-conditioned medium
CCRF-CEM [33] = test: Potentiation of afatinib-induced antileukemic activity against human CCRF-CEM cells at 4.3 uM in presence of bone-marrow derived stromal cell-conditioned medium
CCRF-CEM [34] = test: Potentiation of AGI-5198-induced antileukemic activity against human CCRF-CEM cells at 4.3 uM in presence of bone-marrow derived stromal cell-conditioned medium
CCRF-CEM [35] = test: Potentiation of dexamethasone-induced antileukemic activity against human CCRF-CEM cells at 4.3 uM in presence of bone-marrow derived stromal cell-conditioned medium
U-937 [36] = test: Potentiation of niotinib-induced antileukemic activity against human U-937 cells at 4.3 uM in presence of bone-marrow derived stromal cell-conditioned medium
CCRF-CEM [37] = test: Potentiation of midostaurin-induced antileukemic activity against human CCRF-CEM cells at 4.3 uM in presence of bone-marrow derived stromal cell-conditioned medium
CCRF-CEM [38] = test: Potentiation of navitoclax-induced antileukemic activity against human CCRF-CEM cells at 4.3 uM in presence of bone-marrow derived stromal cell-conditioned medium
U-937 [39] = test: Potentiation of nelarabine-induced antileukemic activity against human U-937 cells at 4.3 uM in presence of bone-marrow derived stromal cell-conditioned medium
U-937 [40] = test: Potentiation of ponatinib-induced antileukemic activity against human U-937 cells at 4.3 uM in presence of bone-marrow derived stromal cell-conditioned medium
CCRF-CEM [41] = test: Potentiation of niotinib-induced antileukemic activity against human CCRF-CEM cells at 4.3 uM in presence of bone-marrow derived stromal cell-conditioned medium
CCRF-CEM [42] = test: Potentiation of bleomycine-induced antileukemic activity against human CCRF-CEM cells at 4.3 uM in presence of bone-marrow derived stromal cell-conditioned medium

Measured: Activity

CC(=O)N1CCc2c(sc3nc(SCC(=O)Nc4cccnc4C)n(Cc4ccco4)c(=O)c23)C1
inactive: MOLM-14 [1] | MOLM-14 [2] | U-937 [3] | CCRF-CEM [4] | CCRF-CEM [5] | CCRF-CEM [6] | MOLM-14 [7] | CCRF-CEM [8] | MOLM-14 [9] | MOLM-14 [10] | CCRF-CEM [11] | U-937 [12] | U-937 [13] | CCRF-CEM [14] | CCRF-CEM [15] | MOLM-14 [16] | MOLM-14 [17] | MOLM-14 [18] | MOLM-14 [19] | U-937 [20] | U-937 [21] | U-937 [22] | U-937 [23] | MOLM-14 [24] | CCRF-CEM [25] | MOLM-14 [26] | MOLM-14 [27] | CCRF-CEM [28] | MOLM-14 [29] | U-937 [30] | MOLM-14 [31] | CCRF-CEM [32] | CCRF-CEM [33] | CCRF-CEM [34] | CCRF-CEM [35] | U-937 [36] | CCRF-CEM [37] | CCRF-CEM [38] | U-937 [39] | U-937 [40] | CCRF-CEM [41] | CCRF-CEM [42]
